Assays:
NCI-H358 cells = experiment: NCI-H358 3D tumor spheroid growth inhibition; format: cell-based; settings: Homo sapiens, NCI-H358, 168 h, 3D spheroids, 7 days, 3D CellTiter Glo; cellular IC50 designated EC50; read-out: H358 EC50
Outline: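 Cells seeded at 1000/well in ultra-low-attachment plates at 37 °C, 5% CO2 to form spheroids, then incubated a further 7 days with compounds. Viability by 3D CellTiter Glo luminescence; % inhibition versus DMSO wells, with normalized cellular IC50 reported as EC50.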

[1] = target: SHP-2 full length protein (Homo sapiens (Human), UniProt Q06124); experiment: SHP-2 biochemical DiFMUP pseudosubstrate-fluorogenic assay; settings: 0.2 nM SHP-2, 1 μM IRS-1 activator peptide, 50 μM DiFMUP; read-out: SHP2 IC50
Outline: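 In-house recombinant full-length SHP-2 preincubated 90 min at room temperature with compounds (1:3 series, 10,000–0.005 nM), then DiFMUP substrate added at 50 μM final for 30 min more. Fluorescence normalised to DMSO wells (100%) and IC50 derived by curve fitting.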

Chain of SHP-2 full length protein (Q06124 whole entry): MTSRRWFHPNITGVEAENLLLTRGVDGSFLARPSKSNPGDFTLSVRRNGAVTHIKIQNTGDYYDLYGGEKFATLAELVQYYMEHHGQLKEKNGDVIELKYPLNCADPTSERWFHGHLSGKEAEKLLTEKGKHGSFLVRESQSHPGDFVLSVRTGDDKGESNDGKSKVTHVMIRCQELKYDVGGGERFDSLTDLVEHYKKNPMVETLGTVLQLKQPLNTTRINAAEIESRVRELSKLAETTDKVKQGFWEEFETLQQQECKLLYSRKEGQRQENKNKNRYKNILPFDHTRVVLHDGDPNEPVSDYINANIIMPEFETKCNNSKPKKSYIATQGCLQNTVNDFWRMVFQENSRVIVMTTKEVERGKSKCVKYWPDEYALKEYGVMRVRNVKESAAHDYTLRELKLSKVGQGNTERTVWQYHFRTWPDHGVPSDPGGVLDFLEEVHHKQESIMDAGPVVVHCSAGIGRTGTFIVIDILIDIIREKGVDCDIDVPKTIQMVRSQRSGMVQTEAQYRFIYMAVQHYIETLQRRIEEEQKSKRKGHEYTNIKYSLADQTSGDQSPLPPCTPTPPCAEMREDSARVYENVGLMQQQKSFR

Structure (SMILES) | EC50 (NCI-H358 cells) [µM] | IC50 [1] [µM]
C[C@@H]1OCC2(CCN(c3ncc(Sc4ccnc5ccccc45)c4nccn34)CC2)[C@@H]1N [Example 114, (3S,4S)-3-methyl-8-(8-(quinolin-4-ylthio)imidazo[1,2-c]pyrimidin-5-yl)-2-oxa-8-azaspiro[4.5]decan-4-amine] | 0.064 | 0.0068
Cc1nc(N2CCC3(CCC[C@H]3N)CC2)n2ccnc2c1-c1ccnc(N)c1Cl [Example 29, (R)-8-(8-(2-amino-3-chloropyridin-4-yl)-7-methylimidazo[1,2-c]pyrimidin-5-yl)-8-azaspiro[4.5]decan-1-amine] | 5.5 | 1.3
N[C@@H]1c2ccccc2CC12CCN(c1ncc(Sc3ccnc4cccnc34)c3nccn13)CC2 [Example 144, (S)-1′-(8-((1,5-naphthyridin-4-yl)thio)imidazo[1,2-c]pyrimidin-5-yl)-1,3-dihydrospiro[indene-2,4′-piperidin]-1-amine] | 0.0044 | 0.0036
N[C@@H]1c2ccccc2CC12CCN(c1ncc(Sc3ccnc4sccc34)c3nccn13)CC2 [Example 138, (S)-1′-(8-(thieno[2,3-b]pyridin-4-ylthio)imidazo[1,2-c]pyrimidin-5-yl)-1,3-dihydrospiro[indene-2,4′-piperidin]-1-amine] | 0.011 | 0.0022
Cc1nc(N2CCC3(CC2)C[C@@H](O)C[C@H]3N)n2ccnc2c1Sc1cccc(Cl)c1Cl [Example 75, (2R,4R)-4-amino-8-(8-((2,3-dichlorophenyl)thio)-7-methylimidazo[1,2-c]pyrimidin-5-yl)-8-azaspiro[4.5]decan-2-ol] | 0.048 | 0.0039
C[C@@H]1OCC2(CCN(c3ncc(Sc4ccnc5cc(F)ccc45)c4nccn34)CC2)[C@@H]1N [Example 116, (3S,4S)-8-(8-((7-fluoroquinolin-4-yl)thio)imidazo[1,2-c]pyrimidin-5-yl)-3-methyl-2-oxa-8-azaspiro[4.5]decan-4-amine] | 0.072 | 0.008
CC1(N)CCN(c2ncc(Sc3cccc(Cl)c3Cl)c3ncnn23)CC1 [Example 62, 1-(8-((2,3-dichlorophenyl)thio)-[1,2,4]triazolo[1,5-c]pyrimidin-5-yl)-4-methylpiperidin-4-amine] | > 12.5 | 1.3
C[C@@H]1OCC2(CCN(c3ncc(Sc4ccc(C(N)=O)c5ccccc45)c4nccn34)CC2)[C@@H]1N [Example 120, 4-((5-((3S,4S)-4-amino-3-methyl-2-oxa-8-azaspiro[4.5]decan-8-yl)imidazo[1,2-c]pyrimidin-8-yl)thio)-1-naphthamide] | 0.5 | 0.026
Cc1nc(N2CCC3(CC2)C[C@@H](O)C[C@H]3N)n2cnnc2c1-c1cccc(Cl)c1Cl [Example 68, (2R,4R)-4-amino-8-(8-(2,3-dichlorophenyl)-7-methyl-[1,2,4]triazolo[4,3-c]pyrimidin-5-yl)-8-azaspiro[4.5]decan-2-ol] | 0.44 | 0.0094
Nc1nccc(Sc2cnc(N3CCC4(CCC[C@H]4N)CC3)n3cnnc23)c1Cl [Example 63, (R)-8-(8-((2-amino-3-chloropyridin-4-yl)thio)-[1,2,4]triazolo[4,3-c]pyrimidin-5-yl)-8-azaspiro[4.5]decan-1-amine] | 0.58 | 0.013
COC(=O)c1cccc2c(Sc3cnc(N4CCC5(CC4)CO[C@@H](C)[C@H]5N)n4ccnc34)ccnc12 [Example 105, methyl 4-((5-((3S,4S)-4-amino-3-methyl-2-oxa-8-azaspiro[4.5]decan-8-yl)imidazo[1,2-c]pyrimidin-8-yl)thio)quinoline-8-carboxylate] | 0.76 | 0.082
C[C@@H]1OCC2(CCN(c3ncc(Sc4cc(=O)n(C)c5ccccc45)c4nccn34)CC2)[C@@H]1N [Example 92, 4-((5-((3S,4S)-4-amino-3-methyl-2-oxa-8-azaspiro[4.5]decan-8-yl)imidazo[1,2-c]pyrimidin-8-yl)thio)-1-methylquinolin-2(1H)-one] | > 12.5 | > 10
N[C@@H]1CCCC12CCN(c1nc(Cl)c(-c3cccc(Cl)c3Cl)c3nccn13)CC2 [Example 69, (R)-8-(7-chloro-8-(2,3-dichlorophenyl)imidazo[1,2-c]pyrimidin-5-yl)-8-azaspiro[4.5]decan-1-amine] | 0.086 | 0.0031
